Test results as given in patent publication US10308617B2, “Triazole benzamide derivatives and the compositions and methods of treatment regarding the same” (An2H Discovery Limited, priority 2016, dated 2019).

Tests used:
Parkin = Parkin (Homo sapiens, UniProt O60260); experiment: Parkin pUB Auto-ubiquitinylation Assay (TR-FRET); assay type: biochemical; settings: Parkin activation, pUb activated Parkin; read-out: Auto-ubiq EC50 (μM) [Example 3]
Text: A Parkin pUB Auto-ubiquitinylation Assay is used to evaluate a compound's potency to activate Parkin's ability to Auto-ubiquitinylate itself.
The principle of this assay is that the E3 Ligase Parkin catalyzes the transfer of Ubiquitin to target proteins, but also has the ability to auto-ubiquitinylate itself. The phospho-Ubiquition (pUb) added to the assay alters the Parkin to a state where small molecule activators can enable the Parkin to auto-ubiquitinylate though the E1-E2 cascade reaction. The use of a Eu cryptate Ubiquition and anti 6His-d2 that binds to the His tagged Parkin will give a signal when the Eu cryptate Ubiquition is auto-ubiquitinylate onto the Parkin which can be monitored by TR-FRET.
Similar to the Activity-based probe assay in Example 2, screening for activating compounds can be distinguished from the controls as follows: • 100% activation signal=pUb activated Parkin+40 nM control activator in DMSO. • 0% activation signal=pUb activated Parkin+DMSO only. • Parkin activators can be identified by an increase of the 0% activation signal TR-FRET signal. Materials: • Assay Plate: White 384 well plate (Corning 3572) • Enzyme 1: E1 (Ubiquitin-activating enzyme/UBE1 Boston Biochem E-305) • Enzyme 2: E2 (UBcH7/Ube2L3 Boston Biochem E2-640) • Enzyme 3: Parkin-His tagged 203 μM (10.5 mg/ml) • pUb: Phospho-Ubiquitin (S65) (Boston Biochem U-102) • Eu Cryptate Reagent: Ubiquitin Eu (CisBio 61UBIKLA) • DMSO: DMSO (Sigma-34869-2.5L) • Reaction Buffer: 50 mM HEPES, 50 mM NaCl, 1 mM MgCl2, 0.005% Tween 20, 0.1% PF-127 (Fisher Scientific 50-310-494), pH 8.5 • Detection Buffer: 50 mM HEPES, 50 mM NaCl, 800 mM KF, 5 mM EDTA, 0.005% Tween 20, 0.1% PF-127, pH 8.5 • Detection Reagent Z: 13.4 nM Anti-6His-d2 in detection buffer • d2 Reagent: Anti-6His-d2 (CisBio 61HISDLA)
Enzyme Reaction (15 min pre-incubation with Parkin, pUb and activator only) • Parkin: 196 nM • pUb: 196 nM • DMSO: 1% DMSO • E1: 5 nM • E2: 50 nM • Ubiquitin Eu: 8.8 nM • Reaction time: 120 minutes • Temperature: 22° C. • Total volume: 10 μl reaction
Take 10 μl of Enzyme Reaction above and add 10 μl detection Reagent Z under the following conditions:
Assay Procedure: • 1) Load assay plate wells with 4.9 μl 400.0 nM Parkin, 400 nM pUb in reaction buffer by use of Eppendorf 12-channel pipette. • 2) Deliver 0.1 μl 100× activator candidates in DMSO by use of Echo 555 compound dispenser. Highest 100× concentration=100 μm and then twofold dilutions. Add each compound and control in duplicate wells. • 3) Spin 1000 rpm, 2 minutes, at room temp. • 4) Incubate plate for 15 minutes at room temp. • 5) Add 5 μl 10 nM E1, 100 nM E2, 17.6 nM Ubiquitin Eu and 2 mM ATP in Reaction Buffer by use of Eppendorf 12-channel pipette. • 6) Spin 1000 rpm, 2 minutes, at room temp. • 7) Incubate plate for 120 minutes at room temp. • 8) Add 10 μl 13.4 nM anti his d2 in detection buffer by use of Eppendorf 12-channel pipette. • 9) Spin 1000 rpm, 2 minutes, at room temp. • 10) Incubate plate for 120 minutes at room temp. • 11) Read plates on Perkin Elmer Envision instrument with the following parameters: • LANCE dual laser protocol loaded into the Envision® software • Top Mirror: LANCE/DELFIA Duel/Bias (Bar code 446) • Emission Filter: APC 665 EM (Bar code 205) • 2nd Emission Filter: Europium 615 EM (Bar code 203) • Read 655 nm (channel 1) and 615 nm (channel 2) wavelengths on Envision®
Data Analysis: The Data can be read in CSV files. There are two tables in those CSV files, which are the values of 655 nm (channel 1) and 615 nm (channel 2) wavelengths respectively. The data is converted to an HTRF Ratio=(Channel 1/Channel 2)*10,000
The average of all the 0 uM controls (DMSO only)=BKGD (Background—0% activation). Subtract BKGD from each HTRF Ratio value=HTRF-BKGD. The average of all the […] control activator in DMSO controls=Max (100% activation). The following equation is then used to calculate % Activation for each well/candidate as follows: % Activation=(HTRF-BKGD/Max)*100. […]

[1] = Microsomal Stability Assay, rat liver microsomes; assay type: in vitro ADME; settings: rat, liver microsomes, pH 7.4; 1 μM compound, 1.0 mg/mL microsome, NADPH; read-out: RLM t1/2
Method: Compounds were also tested for metabolic stability in both rat liver microsomes (RLM) and human liver microsomes (HLM) and their half-life calculated (See Table 5). The assay was performed as follows. The total volume for each incubation was 250 μL. A 100 μM DMSO solution of compound (diluted from 10 mM stock solution) was spiked into 50 mM KH2PO4 (pH 7.4) buffer containing liver microsome at a concentration of 1.0 mg/mL. The reaction was initiated by the addition of 50 μL of 1 mM NADPH. The final concentration of each compound was 1 μM (1% DMSO). The positive controls, phenacetin for CYP1A2, diclofenac for CYP2C9, omeprazole for CYP2C19, dextromethorphan for CYP2D6 and midazolam for CYP3A4 were added to a separate tube with the final substrate concentrations of 1 μM (1% DMSO) for evaluating the enzyme activities in the liver microsomes. At 0, 15, 30 and 60 min, an aliquot of 15 μL reaction mixtures were removed and 200 μL of methanol (with internal standard of 25 ng/mL propranolol) was added to quench the reaction. The resulting mixture was centrifuged and supernatant was used for LC-MS/MS analysis.
The signals for each compound, or the metabolites for the probe substrates and the internal standard were integrated and the peak area ratios to internal standard were generated. Percent parent remaining at a specified timepoint was calculated based on the peak area ratios at time 0 (as 100%) for in vitro metabolic stability studies in liver microsome and hepatocyte. The observed rate constant (kobs) for the metabolism of substrates was calculated by plotting the natural log of percentage substrate remaining versus time of incubation with the slope being kobs. The half-life (T1/2) was calculated according to the following equation: T1/2=0.693/kobs

Parkin, sequence (O60260 whole entry, other chains not shown): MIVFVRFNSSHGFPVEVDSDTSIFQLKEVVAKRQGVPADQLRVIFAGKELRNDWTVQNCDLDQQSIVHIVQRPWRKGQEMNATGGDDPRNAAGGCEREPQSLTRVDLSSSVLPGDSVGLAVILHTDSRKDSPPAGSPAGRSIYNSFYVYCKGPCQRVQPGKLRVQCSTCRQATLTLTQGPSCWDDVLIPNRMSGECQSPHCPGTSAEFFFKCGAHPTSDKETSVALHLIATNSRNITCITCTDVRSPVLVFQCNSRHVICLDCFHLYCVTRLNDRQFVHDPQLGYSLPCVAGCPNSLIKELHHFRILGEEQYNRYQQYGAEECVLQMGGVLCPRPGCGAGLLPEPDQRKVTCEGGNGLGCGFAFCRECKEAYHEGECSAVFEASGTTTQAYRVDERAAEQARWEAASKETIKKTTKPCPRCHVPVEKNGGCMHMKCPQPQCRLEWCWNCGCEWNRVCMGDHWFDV

Structure (SMILES)	EC50 (Parkin)	half-life at 1 μM [1]
O=C(Nc1nc(Nc2cc(N3CCCC3)nc3ccccc23)n(-c2ccccc2)n1)c1ccccc1 [Compound A1]	> 40 µM	–
O=C(Nc1nc(NC(=O)c2cc3ccccc3s2)n(-c2ccccc2)n1)c1ccccc1 [Compound A2]	> 40 µM	36 min
O=C(Nc1nc(Nc2nc(N3CCCC3)c3ccccc3n2)n(-c2ccccc2)n1)c1ccccc1 [Compound B1]	> 40 µM	–
CC(=O)Nc1nc(NC(C)=O)n(-c2ccccc2)n1 [Compound B]	> 40 µM	–
O=C(Nc1nc(Nc2ncnc3ccccc23)n(-c2ccccc2)n1)c1cccs1 [Compound C1]	> 100 µM	–
CN1CCC(C(=O)Nc2nc(Nc3ncnc4ccccc34)n(-c3ccccc3)n2)CC1 [Compound D1]	> 40 µM	–
O=C(Nc1nc(NC(=O)c2ccccc2)n(-c2ccc3ccccc3n2)n1)c1ccccc1 [Compound D2]	> 40 µM	–
O=C(Nc1nc(NC(=O)c2ccccc2)n(-c2ccc(I)cc2)n1)c1ccccc1 [Compound E, N-[5-benzamido-1-(4-iodophenyl)-1,2,4-triazol-3-yl]benzamide]	> 40 µM	–
Cc1ccccc1C(=O)Nc1nc(NC(=O)c2ccccc2)n(-c2ccccc2)n1 [Compound H]	> 40 µM	–
Cc1ccccc1C(=O)Nc1nc(NC(=O)c2ccccc2)nn1-c1ccccc1 [Compound K, N-(5-benzamido-2-phenyl-1,2,4-triazol-3-yl)-2-methyl-benzamide]	> 40 µM	–
O=C(Nc1nc(NC(=O)c2ccc(I)cc2)n(-c2ccccc2)n1)c1ccc(I)cc1 [D]	> 40 µM	–
CN(C(=O)c1ccccc1)c1nc(NC(=O)c2ccccc2)n(-c2ccccc2)n1 [G]	> 40 µM	–
O=C(Nc1nc(Nc2ncnc3ccccc23)nn1-c1ccccc1)c1ccccc1 [I]	> 40 µM	–
CN(C(=O)c1ccccc1)c1nc(N(C)C(=O)c2ccccc2)n(-c2ccccc2)n1 [J]	> 40 µM	–
Cc1ccccc1-n1nc(NC(=O)c2ccccc2)nc1NC(=O)c1ccccc1 [M]	> 40 µM	–
O=C(Nc1nc(-c2ccccn2)nn1-c1ccccc1)c1ccccc1 [T]	> 40 µM	–
O=C(Nc1nc(Nc2nccc3ccccc23)n(-c2ccccc2)n1)c1ccccc1 [U]	> 40 µM	–
CN(C(=O)c1ccccc1)c1nc(NC(=O)c2ccccc2)nn1-c1ccccc1 [V]	> 40 µM	–
CCN(CC)c1nc(Nc2nc(NC(=O)c3ccccc3)nn2-c2ccccc2)c2ccccc2n1 [W]	> 40 µM	–
CCN(CC)c1nc(Nc2nc(NC(=O)c3ccccc3)nn2-c2ccccc2)nc2ccccc12 [X]	> 40 µM	–

Continued, values first:

EC50 (Parkin)	half-life at 1 μM [1]	Structure (SMILES)
> 40 µM	–	O=C(Nc1nc(Nc2nc(O)nc3ccccc23)n(-c2ccccc2)n1)c1ccccc1 [Compound E1]
> 40 µM	–	CCN(CC)c1cc(Nc2nc(NC(=O)c3ccccc3)nn2-c2ccccc2)ncn1 [Compound F1]
> 40 µM	–	COc1ccc(-n2nc(NC(=O)c3ccccc3)nc2NC(=O)c2ccccc2)cc1 [Compound F2]
> 40 µM	–	O=C(Nc1nc(Nc2cc(N3CCCC3)ncn2)n(-c2ccccc2)n1)c1ccccc1 [Compound G1]
> 40 µM	–	O=C(Nc1nc(Nc2ccncn2)n(-c2ccccc2)n1)c1ccccc1 [Compound H1]
–	16 min	Cc1ccccc1C(=O)Nc1nc(-c2ccccn2)nn1-c1ccc(OC(F)(F)F)cc1 [Compound H3]
> 40 µM	–	O=C(Nc1nc(Nc2ccnc3ccccc23)n(-c2ccccc2)n1)c1ccccc1 [Compound I1]
> 40 µM	–	O=C(Nc1nc(NC(=O)c2ccccc2)n(C2CCOCC2)n1)c1ccccc1 [Compound I2]
> 40 µM	–	Nc1nc(Nc2nc(NC(=O)c3ccccc3)nn2-c2ccccc2)c2ccccc2n1 [Compound J1]
> 40 µM	–	CC(C)C(=O)Nc1nc(Nc2ncnc3ccccc23)n(-c2ccccc2)n1 [Compound K1]
> 40 µM	–	C/C=C/C(=O)Nc1nc(Nc2ncnc3ccccc23)n(-c2ccccc2)n1 [Compound L1]
> 40 µM	–	C=CC(=O)Nc1nc(NC(=O)c2ccccc2)nn1-c1ccccc1 [Compound L2]
> 40 µM	–	C=C(C)C(=O)Nc1nc(Nc2ncnc3ccccc23)n(-c2ccccc2)n1 [Compound M1]
> 40 µM	–	O=C(Nc1nc(NC(=O)c2nc3ccccc3s2)n(-c2ccccc2)n1)c1ccccc1 [Compound M2]
> 40 µM	–	Nc1nc(Nc2nc(NC(=O)c3ccccc3)nn2-c2ccccc2)nc2ccccc12 [Compound N1]
> 40 µM	–	O=C(Nc1nc(Nc2nc(O)c3ccccc3n2)n(-c2ccccc2)n1)c1ccccc1 [Compound O1]
> 40 µM	–	O=C(Nc1nc(NC(=O)c2ccccc2)n(-c2cccc3cccnc23)n1)c1ccccc1 [Compound O2]
> 40 µM	–	O=C(Nc1nc(NC(=O)c2ccccc2)n(-c2cccc3ncccc23)n1)c1ccccc1 [Compound P2]
–	133 min	Cc1ccccc1C(=O)Nc1nc(NC(=O)c2ccccc2C)n(-c2ccc(Cl)cc2)n1 [Compound Q3]
> 40 µM	–	Cc1ccccc1C(=O)Nc1nc(-c2ccncc2)nn1-c1ccccc1 [Compound S2]
> 40 µM	–	Cc1ccccc1C(=O)Nc1nc(-c2cccnc2)nn1-c1ccccc1 [Compound T2]
> 40 µM	–	O=C(Nc1nc(NC(=O)c2cccc([N+](=O)[O-])c2)n(-c2ccccc2)n1)c1ccccc1 [Compound V1]
> 40 µM	–	Cc1ccccc1C(=O)Nc1nc(C2CCOCC2)nn1-c1ccccc1 [Compound V2]
> 40 µM	–	Cc1ccccc1C(=O)Nc1nc(NC(=O)c2ccccc2C)n(C(C)C)n1 [Compound W2]
> 40 µM	–	O=C(Nc1nc(NC(=O)c2ccccc2)n(-c2ccc(-c3ccccc3)cc2)n1)c1ccccc1 [Compound X1]
> 40 µM	–	Cc1ccccc1C(=O)Nc1nc(NC(=O)c2ccccc2C)n(-c2ccccn2)n1 [Compound X2]
